The target of assay [1] is T1, human M1 receptor (hCHRM1) (Homo sapiens, UniProt P11229).
T1 construct: expressed in transfected cells
T1 sequence (P11229 1-460): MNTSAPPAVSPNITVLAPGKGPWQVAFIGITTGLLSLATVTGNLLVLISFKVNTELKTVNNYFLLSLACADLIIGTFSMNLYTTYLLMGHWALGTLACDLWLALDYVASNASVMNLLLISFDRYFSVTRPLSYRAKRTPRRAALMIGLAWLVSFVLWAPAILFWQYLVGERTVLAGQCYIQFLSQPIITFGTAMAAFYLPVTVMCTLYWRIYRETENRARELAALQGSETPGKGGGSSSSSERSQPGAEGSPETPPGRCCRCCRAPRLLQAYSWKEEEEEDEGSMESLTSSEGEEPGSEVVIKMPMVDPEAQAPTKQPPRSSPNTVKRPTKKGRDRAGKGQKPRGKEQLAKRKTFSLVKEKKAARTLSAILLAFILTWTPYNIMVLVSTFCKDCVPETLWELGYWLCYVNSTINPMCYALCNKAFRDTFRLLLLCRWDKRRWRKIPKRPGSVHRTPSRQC
Description: Measurement of M1 receptor positive allosteric modulator (M1PAM) activity, calcium fluorescence in CHO-K1 cells.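 For pEC50: potency reported as IP value in nM.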 The format is cell-based. The settings on record: for activity (%) at 10 μM: 10 μM test compound with acetylcholine at EC20, 100% = acetylcholine 1 μM, 0% = DMSO; for pEC50: inflection point in the concentration-dependent curve, acetylcholine at EC20 (final 0.6-0.8 nM), CHO-K1 cells expressing human M1, Fluo-4, FLIPRtetra, read-out: IP value. The procedure:
Measurement of M1 Receptor Positive Allosteric Modulator (M1PAM) Activity
The activity of a test compound in the presence of acetylcholine at EC20 concentration (final concentration 0.6-0.8 nM), which affords an action corresponding to about 20% of the maximum activity, was measured as PAM activity. The method is as follows. CHO-K1 cells stably expressing a human M1 receptor (hCHRM1) were plated on a 384-well black clear bottom plate (BD Falcon) at 5,000 cells/well, and cultured in an incubator at 37° C., 5% CO2 for 1 day. The medium in the cell plate was removed, and assay buffer A containing calcium indicator (Recording medium (DOJINDO LABORATORIES), 0.1% BSA (Wako Pure Chemical Industries, Ltd.), 2.5 μg/mL Fluo-4 AM (DOJINDO LABORATORIES), 0.08% Pluronic F127 (DOJINDO LABORATORIES), 1.25 mM probenecid (DOJINDO LABORATORIES)) was added at 30 μL/well. The cells were left standing in the incubator at 37° C., 5% CO2 for 30 min, and further left standing at room temperature for 30 min. A test compound prepared by diluting with assay buffer B (HBSS (Invitrogen), 20 mM HEPES (Invitrogen), 0.1% BSA) containing 2.4-3.2 nM acetylcholine was added at 10 μL/well, and the fluorescence was measured by FLIPRtetra (Molecular Devices) for 1 min every 1 second. With the definition that the amount of change in the fluorescence on addition of acetylcholine (final concentration 1 μM) is 100% and that on addition of DMSO instead of a test compound is 0%, the activity (%) of the test compound was calculated, and the inflection point in the concentration-dependent curve of the test compound was calculated as IP values.

Assay [2] concerns IP1 production in hippocampi. Description: Measurement of myo-inositol 1 phosphate (IP1) in rat hippocampi after oral administration. The format is in vivo, male Long-Evans rats. The settings on record: 10 mg/kg oral, rat hippocampus IP1/protein ratio, Vehicle group as 100%. Here is the method:
Measurement of Myo-Inositol 1 Phosphate (IP1)
Animals used were male Long-Evans rats. They were used after acclimation for at least 1 week. Test compounds were suspended in 0.5% (w/v) aqueous methylcellulose solution, and the suspension was orally administered to the rats. After a given time, lithium chloride was dissolved in saline and subcutaneously administered into the rats. After a given time, their bilateral hippocampi were isolated from the rats, and the wet weight thereof was measured. The isolated hippocampi were homogenized with HEPES buffer, followed by centrifugation. The IP1 and protein concentrations in the supernatant were measured by IP-One HTRF(R) assay kit (Cisbio Bioassays) and BCA protein assay kit (Thermo Scientific), respectively. The level of the IP1 production was expressed as the ratio of the concentration of IP1 to that of protein. The increase rate of the IP1 production was shown as a relative value when Vehicle administration group as 100%.

This is an account of results in patent US10208046B2, “Nitrogen-containing heterocyclic compound” (Takeda Pharmaceutical Company Limited, priority 2014, dated 2019).

pEC50: −log10 of the molar value.

As to `Cc1nn(C)cc1-c1ccc(CN2Cc3ncnc(OCC(C)(F)F)c3C2=O)cc1` [Example 22, 4-(2,2-difluoropropoxy)-6-(4-(1,3-dimethyl-1H-pyrazol-4-yl)benzyl)-6,7-dihydro-5H-pyrrolo[3,4-d]pyrimidin-5-one], in assay [1], the “activity (%) at 10 μM” value turned out to be 100% and the pEC50 was 7.55. Besides, in assay [2], the “increase rate (% of Vehicle)” value was 71 % of Vehicle.

As for `CCC(F)(F)COc1ncnc2c1C(=O)N(Cc1ccc(-c3cnn(C)c3)cc1)C2` [Example 75, 4-(2,2-difluorobutoxy)-6-(4-(1-methyl-1H-pyrazol-4-yl)benzyl)-6,7-dihydro-5H-pyrrolo[3,4-d]pyrimidin-5-one], in assay [1], the “activity (%) at 10 μM” value came to 98% and the pEC50 was 7.89.

Consider `CCC(F)(F)COc1nccc2c1C(=O)N(Cc1ccc(-c3cnn(CC(F)F)c3)cc1)C2` [Example 76, 4-(2,2-difluorobutoxy)-2-(4-(1-(2,2-difluoroethyl)-1H-pyrazol-4-yl)benzyl)-1,2-dihydro-3H-pyrrolo[3,4-c]pyridin-3-one], for which, in assay [1], the “activity (%) at 10 μM” value was 94% and the pEC50 was 7.35.

As for `CCn1cc(-c2ccc(CN3Cc4ccnc(OCC(F)(F)CC)c4C3=O)cc2)cn1` [Example 77, 4-(2,2-difluorobutoxy)-2-(4-(1-ethyl-1H-pyrazol-4-yl)benzyl)-1,2-dihydro-3H-pyrrolo[3,4-c]pyridin-3-one], in assay [1], the “activity (%) at 10 μM” value worked out at 99% and the pEC50 is 7.17.

With `Cn1cc(-c2ccc(CN3Cc4ncnc(OCC(C)(F)F)c4C3=O)cc2)cn1` [Example 78, 4-(2,2-difluoropropoxy)-6-(4-(1-methyl-1H-pyrazol-4-yl)benzyl)-6,7-dihydro-5H-pyrrolo[3,4-d]pyrimidin-5-one], in assay [1], the “activity (%) at 10 μM” value amounted to 95% and the pEC50 was 7.72.

As to `Cn1cc(-c2ccc(CN3Cc4ccnc(OCC(C)(C)F)c4C3=O)c(F)c2)cn1` [Example 81, 4-(2-fluoro-2-methylpropoxy)-2-(2-fluoro-4-(1-methyl-1H-pyrazol-4-yl)benzyl)-1,2-dihydro-3H-pyrrolo[3,4-c]pyridin-3-one], in assay [1], the “activity (%) at 10 μM” value came to 88% and the pEC50 is 7.49.

Turning to `Cc1nn(C)cc1-c1ccc(CN2Cc3ccnc(OCC(C)(C)F)c3C2=O)c(F)c1` [Example 82, 2-(4-(1,3-dimethyl-1H-pyrazol-4-yl)-2-fluorobenzyl)-4-(2-fluoro-2-methylpropoxy)-1,2-dihydro-3H-pyrrolo[3,4-c]pyridin-3-one], in assay [1], the “activity (%) at 10 μM” value is recorded as 95% and the pEC50 was 7.77.

Turning to `CCn1cc(-c2ccc(CN3Cc4ccnc(OCC(C)(F)F)c4C3=O)cc2)cn1` [Example 84, 4-(2,2-difluoropropoxy)-2-(4-(1-ethyl-1H-pyrazol-4-yl)benzyl)-1,2-dihydro-3H-pyrrolo[3,4-c]pyridin-3-one], in assay [1], the “activity (%) at 10 μM” value is listed as 96% and the pEC50 was 7.14.

`Cn1cc(-c2ccc(CN3Cc4ccnc(OCC(C)(F)F)c4C3=O)c(F)c2)cn1` [Example 86, 4-(2,2-difluoropropoxy)-2-(2-fluoro-4-(1-methyl-1H-pyrazol-4-yl)benzyl)-1,2-dihydro-3H-pyrrolo[3,4-c]pyridin-3-one]: in assay [1], the “activity (%) at 10 μM” value was 91% and the pEC50 is 7.68.

For the compound `Cn1cc(-c2ccc(CN3Cc4ccnc(OCC(F)(F)F)c4C3=O)c(F)c2)cn1` [Example 87, 2-(2-fluoro-4-(1-methyl-1H-pyrazol-4-yl)benzyl)-4-(2,2,2-trifluoroethoxy)-1,2-dihydro-3H-pyrrolo[3,4-c]pyridin-3-one], in assay [1], the “activity (%) at 10 μM” value was determined as 101% and the pEC50 was 7.49.

With `Cc1nn(C)cc1-c1ccc(CN2Cc3ccnc(OCC(F)(F)F)c3C2=O)c(F)c1` [Example 88, 2-(4-(1,3-dimethyl-1H-pyrazol-4-yl)-2-fluorobenzyl)-4-(2,2,2-trifluoroethoxy)-1,2-dihydro-3H-pyrrolo[3,4-c]pyridin-3-one], in assay [1], the “activity (%) at 10 μM” value was 101% and the pEC50 is 7.13.

As to `CCC(F)(F)COc1nccc2c1C(=O)N(Cc1ccc(-c3cnn(C)c3)cc1F)C2` [Example 92, 4-(2,2-difluorobutoxy)-2-(2-fluoro-4-(1-methyl-1H-pyrazol-4-yl)benzyl)-1,2-dihydro-3H-pyrrolo[3,4-c]pyridin-3-one], in assay [1], the “activity (%) at 10 μM” value is on record as 94% and the pEC50 is 7.82.

Regarding `CCC(F)(F)COc1nccc2c1C(=O)N(Cc1ccc(-c3ccn(C)n3)cc1F)C2` [Example 97, 4-(2,2-difluorobutoxy)-2-(2-fluoro-4-(1-methyl-1H-pyrazol-3-yl)benzyl)-1,2-dihydro-3H-pyrrolo[3,4-c]pyridin-3-one], in assay [1], the “activity (%) at 10 μM” value stood at 104% and the pEC50 is 7.11.

Take `Cn1cc(-c2ccc(CN3Cc4ncnc(OCC(F)(F)F)c4C3=O)cc2)nn1` [Example 104, 6-(4-(1-methyl-1H-1,2,3-triazol-4-yl)benzyl)-4-(2,2,2-trifluoroethoxy)-6,7-dihydro-5H-pyrrolo[3,4-d]pyrimidin-5-one]: in assay [1], the “activity (%) at 10 μM” value was found to be 95% and the pEC50 was 7.21.

For the compound `Cn1cc(-c2ccc(CN3Cc4ccnc(OCC(C)(F)F)c4C3=O)c(F)c2)nn1` [Example 106, 4-(2,2-difluoropropoxy)-2-(2-fluoro-4-(1-methyl-1H-1,2,3-triazol-4-yl)benzyl)-1,2-dihydro-3H-pyrrolo[3,4-c]pyridin-3-one], in assay [1], the “activity (%) at 10 μM” value is listed as 90% and the pEC50 was 7.54.

Regarding `Cn1cc(-c2ccc(CN3Cc4ccnc(OCC(C)(F)F)c4C3=O)cc2)nn1` [Example 107, 4-(2,2-difluoropropoxy)-2-(4-(1-methyl-1H-1,2,3-triazol-4-yl)benzyl)-1,2-dihydro-3H-pyrrolo[3,4-c]pyridin-3-one], in assay [1], the “activity (%) at 10 μM” value is 92% and the pEC50 was 7.14.

Take `Cc1nn(C)cc1-c1ccc(CN2Cc3ccnc(OCC(C)(F)F)c3C2=O)c(F)c1` [Example 108, 4-(2,2-difluoropropoxy)-2-(4-(1,3-dimethyl-1H-pyrazol-4-yl)-2-fluorobenzyl)-1,2-dihydro-3H-pyrrolo[3,4-c]pyridin-3-one]: in assay [1], the “activity (%) at 10 μM” value came out at 94% and the pEC50 was 7.80.

As to `Cc1nn(C)cc1-c1ccc(CN2Cc3ccnc(OCC(F)F)c3C2=O)c(F)c1` [Example 112, 4-(2,2-difluoroethoxy)-2-(4-(1,3-dimethyl-1H-pyrazol-4-yl)-2-fluorobenzyl)-1,2-dihydro-3H-pyrrolo[3,4-c]pyridin-3-one], in assay [1], the “activity (%) at 10 μM” value is reported as 101% and the pEC50 was 7.39.

`Cn1cc(-c2ccc(CN3Cc4ccnc(OCC(F)(F)F)c4C3=O)c(F)c2)nn1` [Example 114, 2-(2-fluoro-4-(1-methyl-1H-1,2,3-triazol-4-yl)benzyl)-4-(2,2,2-trifluoroethoxy)-1,2-dihydro-3H-pyrrolo[3,4-c]pyridin-3-one]: in assay [1], the “activity (%) at 10 μM” value is 102% and the pEC50 was 7.25.

As for `Cn1cc(-c2ccc(CN3Cc4ccnc(OCC(F)F)c4C3=O)c(F)c2)nn1` [Example 115, 4-(2,2-difluoroethoxy)-2-(2-fluoro-4-(1-methyl-1H-1,2,3-triazol-4-yl)benzyl)-1,2-dihydro-3H-pyrrolo[3,4-c]pyridin-3-one], in assay [1], the “activity (%) at 10 μM” value was 98% and the pEC50 is 7.37.
